Where a SMILES comes first, the peptide text is derived from it.
Tests used:
PDK1 = target: T1, PDK1 (Homo sapiens, UniProt O15530); design: Full length PDK1 (residues 1-556); made in house; host or cells: 293 cells; details: ref [17]; cited from earlier work
T1 sequence (O15530 1-556): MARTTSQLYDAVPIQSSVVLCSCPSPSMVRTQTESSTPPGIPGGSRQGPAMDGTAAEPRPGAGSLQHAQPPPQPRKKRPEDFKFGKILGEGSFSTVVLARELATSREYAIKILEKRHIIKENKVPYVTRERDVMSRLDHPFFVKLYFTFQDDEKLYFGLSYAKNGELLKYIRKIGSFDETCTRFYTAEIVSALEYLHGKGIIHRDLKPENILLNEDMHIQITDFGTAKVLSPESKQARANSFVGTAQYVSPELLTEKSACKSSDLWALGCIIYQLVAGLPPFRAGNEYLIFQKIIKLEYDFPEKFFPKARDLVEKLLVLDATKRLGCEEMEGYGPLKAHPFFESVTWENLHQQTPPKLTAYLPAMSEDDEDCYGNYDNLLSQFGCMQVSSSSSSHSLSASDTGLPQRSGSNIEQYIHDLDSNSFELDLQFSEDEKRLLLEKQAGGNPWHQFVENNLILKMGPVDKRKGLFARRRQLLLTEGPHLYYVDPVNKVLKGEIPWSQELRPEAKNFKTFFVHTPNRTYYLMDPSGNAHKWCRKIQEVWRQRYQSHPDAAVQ

p70 S6K = experiment: IGF1-induced activation and Thr412 phosphorylation of HA-p70 S6K in co-transfected 293 cells; format: cell-based, human
Method: FIG. 3. PIF inhibits p70 S6K activation and phosphorylation at Thr252 and Thr412. 293 cells were co-transfected with constructs expressing the wild type (wt) full length HA-p70 S6K (A) or the full length HA-T412E p70 S6K (B) with either GST-PIF, GST-F977A-PIF, or GST. 24 h post transfection the cells were serum starved for 16 h and them stimulated for 40 min with 100 nM IGF 1. The cells were lysed and HA-p70 S6K was immunoprecipitated and assayed as described in methods. Protein from each lysate (10 μg for the HA blots or 20 μg for the T412-P blot) was electrophoresed on a 10% SDS/polyacrylamide gel and immunoblotted using HA-antibody or the T412-P antibody. The T412-P antibody was incubated with either the synthetic peptide (10 μg/ml) corresponding to residues 401 to 418 of p70 S6K phosphorylated at Thr412 (phosph-412E peptide), or the unphosphorylated peptide (de-phospho-Thr412 peptide). The T412-P antibody consistently recognises a protein termed “non specific band” in cell lysates which migrate at (75 kDa) derived from non transfected and transfected cells. […] It is not co-immunoprecipitated with HA-p70 S6K (date not shown). The HA-p70 S6K activities shown are the average ±SEM for a single experiment carried out in triplicate. Similar results were obtained in 8 separate experiments (A) and 2 experiments (B). The immunoblotting was carried out in 3 separate experiments with similar results.
Transient Transfection Experiments. The DNA constructs encoding for the wild type and mutant forms of HA-p70 S6K in the pMT2 vector used in this study have been described previously. […] The constructs used to express GST-PIF and the mutant GST-F977A-PIF [22] are in the pEBG2T vector. The empty pEBG2T vector was used to express GST protein in control experiments. DNA constructs used in this study were purified from bacteria using the Qiagen plasmid Mega kit according to the manufacturer's protocol.
293 cells cultured on 10 cm diameter dishes in Dulbecco's Modified Eagle's Medium containing 10% (by vol) foetal bovine serum, were transfected with 2 μg of DNA construct encoding either wild type or mutant HA-p70 S6K or HA-PKBα, and 10 μg of DNA construct encoding either GST-PIF, GST-F977A-PIF, GST, Myc-PDK1, kinase-dead Myc-PDK1, or the empty pCMV5 vector using a modified calcium phosphate method. 24 h post transfection the cells were deprived of serum for 16 h, and exposed to IGF1 (100 nM) for the time indicated. The cells were lysed in 1 ml of lysis buffer (50 mM Tris/HCl pH 7.5, 1 mM EDTA, 1 mM EGTA, 1% (by vol) Triton X-100, 1 mM sodium orthovanadate, 10 mM sodium β-glycerophosphate, 50 mM NaF, 5 mM sodium pyrophosphate, 1 μM microcystin-LR, 0.27 M sucrose and protease cocktail tablets), cleared by centrifugation, and 50 μg of protein was subjected to immunoprecipitation with anti HA monoclonal antibody. The protein concentrations of the lysates were determined by the Bradford method.
Kinase assays. The HA-p70 S6K or HA-PKBα immunoprecipitates were washed and assayed for kinase activity using the peptide Crosstide (GRPRTSSFAEG) as described previously for PKBα [28]. One unit of activity, U, was that amount which catalysed the phosphorylation of 1 nmol of substrate in one minute.
Immunoblotting for dephosphorylated and Thr412-phosphorylated p70 S6 kinase. Cell lysates were made 1% SDS and the indicated amounts of protein were subjected to SDS/Polyacrylamide gel electrophoresis, subsequently transferred to nitrocellulose and immunoblotted using the indicated monoclonal antibody or the T412-P phospho-specific antibody (0.4 μg/ml) in 50 mM Tris/HCl pH7.5, 0.15M NaCl, 0.5% (by vol) Tween and 10% (by mass) skimmed milk. Detection was performed using the enhanced chemiluminescence reagent (Amersham Pharmacia Biotech).

Compound | increase in the rate at which PDK1 phosphorylated T308tide (PDK1) | basal HA-p70 S6K activity (p70 S6K; 293 cells co-expressing HA-p70 S6K, unstimulated) | HA-p70 S6K activity after IGF1 stimulation (p70 S6K; 293 cells, 100 nM IGF1 40 min) | IGF1-induced phosphorylation of HA-p70 S6K at Thr412 (p70 S6K; 293 cells, T412-P antibody) | IGF1 induced activation and phosphorylation at Thr412 of the p70 S6K-T2 mutant (p70 S6K; 293 cells, data not shown)
CC[C@H](C)[C@H](NC(=O)[C@H](Cc1ccc(O)cc1)NC(=O)[C@H](CC(=O)O)NC(=O)[C@H](Cc1ccccc1)NC(=O)[C@H](CC(=O)O)NC(=O)[C@H](CCCNC(=N)N)NC(=O)[C@H](Cc1ccccc1)NC(=O)[C@H](CCSC)NC(=O)[C@H](CCC(=O)O)NC(=O)[C@H](CCC(N)=O)NC(=O)[C@H](CCC(=O)O)NC(=O)[C@H](CCC(=O)O)NC(=O)[C@H](CCC(=O)O)NC(=O)[C@H](CO)NC(=O)[C@H](CC(C)C)NC(=O)[C@@H](NC(=O)[C@H](CCCNC(=N)N)NC(=O)[C@@H]1CCCN1C(=O)[C@H](CCC(=O)O)NC(=O)[C@@H](N)CCCNC(=N)N)[C@@H](C)CC)C(=O)N[C@@H](C)C(=O)N[C@@H](CC(=O)O)C(=O)N[C@@H](Cc1c[nH]c2ccccc12)C(=O)N[C@@H](CS)C(=O)O [PIFtide] (H-REPRILSEEEQEMFRDFDYIADWC-OH; N-terminus and C-terminus assumed) | 4 fold | – | – | – | –
GST-PIF: glutathione S-transferase fused to the last 77 residues of PRK2 (PIF) | – | virtually undetectable | only a very slight increase | failed to induce | abolished

Reference: patent publication US20080009025A1, “PROTEIN KINASE REGULATION” (priority 1999, published 2008)
